According to publication PMC3175392, “Noninvasive In Vivo Quantification of Neutrophil Elastase Activity in Acute Experimental Mouse Lung Injury” (International Journal of Molecular Imaging, 2011):
Structures can show the parent of a compound that is named as a salt.

Assays:
neutrophil influx = experiment: Lung histology (H and E) after in vivo imaging, neutrophil influx; design: species or system mouse; conditions: single treatment 5 mg/kg i.n. 18 h after LPS; H and E sections
NE [1] = biological target: T1, NE (Mus musculus, UniProt Q3UP87); experiment: In vivo FMT imaging of NE680 activation in LPS/fMLP acute lung injury
T1 construct: from tissue; host or cells: lung of LPS/fMLP-challenged CD-1 mice (frozen sections or in vivo)
T1 sequence (Q3UP87 27-265): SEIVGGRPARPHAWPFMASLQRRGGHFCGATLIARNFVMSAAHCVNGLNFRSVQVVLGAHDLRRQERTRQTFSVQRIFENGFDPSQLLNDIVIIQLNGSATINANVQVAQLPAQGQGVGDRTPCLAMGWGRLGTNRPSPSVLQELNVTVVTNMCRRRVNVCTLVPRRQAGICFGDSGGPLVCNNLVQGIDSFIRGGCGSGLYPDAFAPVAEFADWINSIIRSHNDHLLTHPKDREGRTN
From the text: Acute lung inflammation was induced in mice according to published protocols with slight modifications. Male CD-1 mice were purchased from Charles River Laboratories (Wilmington, MA) and used when they reached 8–10 weeks of age. Mice were housed in environmentally controlled specific-pathogen-free conditions with water and low-fluorescence mouse chow (Harlan Teklad, Madison, WI). All animal experimental procedures were approved by PerkinElmer's Institutional Animal Care and Use Committee and were in accordance with veterinarian requirements. On day 1, mice were challenged intranasally (i.n.) with 100 μg of LPS (E. coli 111 : B4, Sigma, St. Louis, MO) solubilized in 40 μL PBS or PBS only. Eighteen hours later, mice received an intranasal instillation of the chemotactic peptide N-formyl-met-leu-phe (fMLP, Sigma, St. Louis, MO) at 200 nM in 40 μL PBS together with 4 nmoles of NE680.
For in vivo imaging, mice were first depilated using Nair and placed in a fluorescence molecular tomography (FMT) 2500 system (PerkinElmer, Boston, MA) imaging chamber to which is delivered a controlled amount of isoflurane/oxygen mixture keeping the mice anesthetized. Three-dimensional regions of interest (ROIs) were drawn around the chest area applying a universal threshold, equal to 40% of the mean concentration value of fluorescence in the LPS/fMLP mice (in nM). The total amount (in picomole) of fluorochrome was automatically calculated relative to internal standards generated with known concentrations of the appropriate fluorochrome. For each study, the mean fluorescence of the LPS/fMLP group was equaled to 100%, and then each mouse in that study was normalized accordingly. Shown are the grouped results of 3 studies, as the percentage of LPS/fMLP Lung Fluorescence (means ± S.E.M.).

human PR3 = biological target: T2, human PR3 (Homo sapiens, UniProt P24158); experiment: Inhibition of NE680 cleavage by human PR3; format: biochemical; conditions: NE680 0.5 μM as substrate; 30 min preincubation of enzyme with inhibitor, room temperature; read-out: IC50 on NE680 activation by human PR3
T2 construct: human neutrophil PR3 from Athens Research and Technology (Athens, GA); purchased Athens Research and Technology (Athens, GA); host or cells: human neutrophils
T2 sequence (P24158 28-256): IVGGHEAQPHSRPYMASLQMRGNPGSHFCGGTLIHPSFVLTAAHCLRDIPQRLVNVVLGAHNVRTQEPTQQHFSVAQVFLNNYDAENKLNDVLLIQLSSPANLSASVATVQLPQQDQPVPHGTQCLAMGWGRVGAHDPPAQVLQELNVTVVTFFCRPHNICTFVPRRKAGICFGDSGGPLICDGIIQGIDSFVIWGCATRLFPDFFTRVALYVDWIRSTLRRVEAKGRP
Experimental: Activation and protease selectivity of NE680 were determined with NE and closely related enzymes including PR3, Cat G, Cat B, and MMP-9. The assays were performed with 0.05 μM of enzyme and 0.5 μM NE680 in the optimized buffer and pH for each enzyme. Human NE was purchased from Innovative Research (Novi, MI), recombinant mouse NE, mouse Cat B, and active mouse Cat C from R and D Systems (Minneapolis, MN), human neutrophil PR3 from Athens Research and Technology (Athens, GA), and human neutrophil Cat G and recombinant human MMP-9 from BIOMOL International (Plymouth Meeting, PA). […] All the reactions were monitored at various time points at excitation/emission wavelengths of 663/690 nm with a cutoff at 665 nm using a fluorescence plate reader (Molecular Devices, San Leandro, CA). The released fluorescence is shown after subtracting background fluorescence of the agent without enzyme.
The IC50 against human NE and human PR3 were determined as described above using NE680 (0.5 μM). […]

NE [2] = biological target: T1, NE; experiment: NE680 activation ex vivo in lung sections; conditions: 1 μM NE680, 37°C, 5 h
From the text: To validate the specificity of NE680 activation by NE present in lungs, mice with lung inflammation and control healthy mice (which had not received NE680) were euthanized by CO2 inhalation and lungs were removed and snap frozen in OCT. […] Fluorescence, as a measure of agent activation, was captured under fluorescence microscopy using appropriate filters (Zeiss Axioskop 2 MOT Plus). DAPI was used as a nuclear counterstain.

mouse NE = experiment: In vitro activation and protease selectivity of NE680 (mouse NE versus related enzymes); format: biochemical; conditions: at 5 h, 0.5 μM NE680, 0.05 μM enzyme, room temperature, optimized buffer for each enzyme
Experimental: Activation and protease selectivity of NE680 were determined with NE and closely related enzymes including PR3, Cat G, Cat B, and MMP-9. The assays were performed with 0.05 μM of enzyme and 0.5 μM NE680 in the optimized buffer and pH for each enzyme. Human NE was purchased from Innovative Research (Novi, MI), recombinant mouse NE, mouse Cat B, and active mouse Cat C from R and D Systems (Minneapolis, MN), human neutrophil PR3 from Athens Research and Technology (Athens, GA), and human neutrophil Cat G and recombinant human MMP-9 from BIOMOL International (Plymouth Meeting, PA). The reaction buffers were as follows: for human NE, 100 mM Tris (pH 7.5); for mouse NE, 50 mM Tris (pH 7.5), 1 M NaCl, 0.05% Brij-35; for Cat B, 25 mM MES (pH 5.0), 0.5 mM DTT (preactivation in 25 mM MES pH 5.0, 5 mM DTT for 15 min at room temperature); for MMP-9, 50 mM Tris (pH 7.5), 10 mM CaCl2, 150 mM NaCl, 0.05% Brij 35; for Cat G, 100 mM Tris (pH 7.5), 1.6 M NaCl; for human PR3, 100 mM Tris (pH 7.5), 500 mM NaCl. Mouse NE was activated by active mouse Cat C in 50 mM MES, 50 mM NaCl, pH5.5 at 37°C for 2 h. Reactions were carried out at room temperature in 250 μL in 96 well plates with black sides and bottom. All the reactions were monitored at various time points at excitation/emission wavelengths of 663/690 nm with a cutoff at 665 nm using a fluorescence plate reader (Molecular Devices, San Leandro, CA). The released fluorescence is shown after subtracting background fluorescence of the agent without enzyme.

Mouse plasma stability = format: in vitro ADME; conditions: normal mouse plasma diluted 1:4 in PBS pH 7.40 with 1 mM EDTA, 37°C, 24 h; HPLC; data not shown
Experimental: The agent was incubated in normal mouse plasma (Innovative Research, Novi, MI) diluted 1 : 4 in PBS, pH 7.40 with 1 mM EDTA, at 37°C for 24 h. The stability of the agent was analyzed by HPLC.
HPLC analyses were performed on a Waters model 2695 (Waters Corporation, Milford, MA). The PDA, Waters model 2998, was set to scan from 225 nm to 800 nm. The wavelength corresponding to the absorbance maximum of the fluorophore, 675 nm, was extracted from the PDA trace. The fluorescence spectrophotometer was set to an excitation wavelength of 675 nm and emission was monitored at 693 nm. Samples were analyzed on a C4, 300 Å, 5 μm, 150 × 4.6 mm HPLC column (Phenomenex, Torrance, CA). The aqueous mobile phase contained 25 mM ammonium formate, pH 8.5. Samples were eluted with acetonitrile at a flow rate of 1 mL/min. A gradient of 15% to 85% organic provided sufficient resolution. Standards were prepared with NE680 (0–2.5 μM) in mouse plasma. Standard curves had correlation coefficients >0.98.

[3] = Fluorescence biodistribution in excised organs; format: in vivo, mouse; conditions: organs excised from 3 LPS/fMLP mice immediately after imaging, reflectance mode, mean fluorescence counts/energy
Experimental: Immediately following imaging, a cohort of mice were sacrificed (n = 3 per group), organs excised, and imaged in reflectance mode using the FMT 2500. The mean fluorescence intensity was measured after drawing an ROI around each organ. Data are expressed as mean fluorescence (in counts/energy) reported as means ± S.E.M.

[4] = Pharmacokinetics in CD-1 mice after i.v. injection; format: in vivo, mouse; conditions: female CD-1 mice, 2 nmol i.v. bolus in PBS, n = 3 mice per time point, HPLC of plasma; data not shown
Experimental: Twenty-four female retired breeder CD-1 mice (age 12–16 weeks, Charles River Laboratories, Wilmington, MA) received a bolus intravenous (i.v.) injection of NE680 (2 nmol in PBS). Terminal blood samples (n = 3 mice per time point) were collected by cardiac puncture from each mouse (following carbon dioxide asphyxiation). Plasma was collected by centrifugation (15,000 rpm for 10 min at 4°C) in EDTA-containing tubes. Aliquots (50 μL) of each plasma sample were placed in Eppendorf tubes. Cold methanol (150 μL) was added and the tubes were vortexed followed by centrifugation at 12,000 rpm and 4°C for 10 minutes. Approximately 110 μL of the supernatants were transferred to HPLC vials for analysis. Studies were conducted in accordance with and approved by PerkinElmer's IACUC Institutional Animal Care and Use Committee guidelines.
HPLC analyses were performed on a Waters model 2695 (Waters Corporation, Milford, MA). The PDA, Waters model 2998, was set to scan from 225 nm to 800 nm. The wavelength corresponding to the absorbance maximum of the fluorophore, 675 nm, was extracted from the PDA trace. The fluorescence spectrophotometer was set to an excitation wavelength of 675 nm and emission was monitored at 693 nm. Samples were analyzed on a C4, 300 Å, 5 μm, 150 × 4.6 mm HPLC column (Phenomenex, Torrance, CA). The aqueous mobile phase contained 25 mM ammonium formate, pH 8.5. […]

[5] = 10 μm frozen sections, fluorescence microscopy

Compound	effect on neutrophil influx into the lung (neutrophil influx)	median concentration of lung fluorescence (NE [1]; ALI mice treated with sivelestat 5 mg/kg i.n. 15 min before fMLP and NE680, n = 12) [nM]	lung fluorescence as percentage of LPS/fMLP group (NE [1]; ALI mice treated with sivelestat 5 mg/kg i.n. 15 min before fMLP and NE680, mean ± S.E.M., n = 12, P = 0.0144) [%]	IC50 (human PR3) [nM]	suppression of NE680 activation in ALI lung sections (NE [2]; sivelestat 40 nM)	suppression of NE680 activation in ALI lung sections (NE [2]; sivelestat 0.4 and 4 μM)	cleavage by mouse NE relative to Cat G (mouse NE; human Cat G) [fold]	cleavage by mouse NE relative to MMP-9 (mouse NE; human MMP-9) [fold]	cleavage by mouse NE relative to Cat B (mouse NE; mouse Cat B)	average total fluorescence per lung (NE [1]; LPS/fMLP mice)	magnitude of signal in positive control animals across studies (NE [1]; LPS/fMLP mice, range between studies)	average total fluorescence per lung (NE [1]; control mice) [pmol fluorescence/lung]	median concentration of lung fluorescence (NE [1]; healthy controls, n = 12, 4 nmoles NE680 i.n., FMT 5 h later) [nM]	median concentration of lung fluorescence (NE [1]; mice with LPS/fMLP ALI, n = 16, 4 nmoles NE680 i.n., FMT 5 h later) [nM]	stability in mouse plasma (Mouse plasma stability)	NE680 signal in lungs relative to all other tissues [3]	fluorescence (agent activation) in lung sections from control mice (NE [2]; [5])	fluorescence (agent activation) in lung sections from mice with ALI (NE [2]; [5])	half-life in plasma (t 1/2) [4] [h]
CC(C)(C)C(=O)Oc1ccc(S(=O)(=O)Nc2ccccc2C(=O)NCC(=O)O)cc1 [sivelestat, N-{2-[({4-[(2,2-dimethylpropanoyl)oxy]phenyl}sulfonyl)amino]benzoyl} glycine sodium salt, reference compound]	not inhibited	73	53.57 ± 10.34	700	significantly inhibited	almost completely blocking													
PMAVVQSVP [NE680]							> 10	> 30	over 250 fold	~ 100 pmol fluorescence/lung	30–190 pmols fluorescence/lung	< 5	0	164	optically stable and remains quenched	30- to 170 fold	little or no apparent fluorescence	strong fluorescence	3
